The record followed here is patent US7473702B2, “Substituted gamma lactams as therapeutic agents” (Allergan, Inc., priority 2005, dated 2009).

One assay addresses T1, hEP3A (Homo sapiens, UniProt P43115).
T1 sequence (P43115 1-390): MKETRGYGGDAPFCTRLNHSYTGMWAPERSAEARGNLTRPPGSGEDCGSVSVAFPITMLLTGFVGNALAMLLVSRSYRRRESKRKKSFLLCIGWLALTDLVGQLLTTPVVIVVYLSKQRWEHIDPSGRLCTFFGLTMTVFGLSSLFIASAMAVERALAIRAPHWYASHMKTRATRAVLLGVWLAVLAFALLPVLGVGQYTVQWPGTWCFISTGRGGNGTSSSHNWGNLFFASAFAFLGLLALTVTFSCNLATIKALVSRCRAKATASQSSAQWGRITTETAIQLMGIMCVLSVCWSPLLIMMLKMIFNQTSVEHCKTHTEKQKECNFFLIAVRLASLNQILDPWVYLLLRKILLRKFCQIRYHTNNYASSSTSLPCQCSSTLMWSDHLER
The assay is described as follows: Other receptors functional EC50, hEP3A. It is filed as cell-based. The text has this: (§1) U.S. patent application Ser. No. 11/553,143, filed on Oct. 26, 2006, incorporated by reference herein, describes the methods used to obtain the in vitro data in the table below.

Another assay concerns the target T2, hDP (Homo sapiens, UniProt Q13258).
T2 sequence (Q13258 1-359): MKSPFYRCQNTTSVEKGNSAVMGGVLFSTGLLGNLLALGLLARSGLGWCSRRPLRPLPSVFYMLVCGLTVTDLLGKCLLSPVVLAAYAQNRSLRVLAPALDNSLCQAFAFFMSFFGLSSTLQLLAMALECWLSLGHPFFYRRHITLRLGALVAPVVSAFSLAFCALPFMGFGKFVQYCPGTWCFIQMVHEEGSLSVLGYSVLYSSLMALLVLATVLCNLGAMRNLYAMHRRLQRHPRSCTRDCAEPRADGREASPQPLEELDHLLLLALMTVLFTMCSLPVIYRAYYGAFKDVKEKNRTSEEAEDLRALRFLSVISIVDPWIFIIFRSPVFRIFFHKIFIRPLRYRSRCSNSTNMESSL
The assay is described as follows: Other receptors functional EC50, hDP. It is filed as cell-based.
Source text: as §1

Assay [1] has as its target T3, EP2 (Homo sapiens, UniProt P43116). The assay is described as follows: EP2 cAMP EC50. The class given is cell-based.
Source text: as §1

The target of assay [2] is T3, EP2. In words: EP2 binding Ki.
Source text: as §1

Assay [3] concerns the target T3, EP2. In words: EP2 flipr EC50. The class given is cell-based.
Source text: as §1

A further assay addresses T4, hTP (Homo sapiens, UniProt P21731).
T4 sequence (P21731 1-343): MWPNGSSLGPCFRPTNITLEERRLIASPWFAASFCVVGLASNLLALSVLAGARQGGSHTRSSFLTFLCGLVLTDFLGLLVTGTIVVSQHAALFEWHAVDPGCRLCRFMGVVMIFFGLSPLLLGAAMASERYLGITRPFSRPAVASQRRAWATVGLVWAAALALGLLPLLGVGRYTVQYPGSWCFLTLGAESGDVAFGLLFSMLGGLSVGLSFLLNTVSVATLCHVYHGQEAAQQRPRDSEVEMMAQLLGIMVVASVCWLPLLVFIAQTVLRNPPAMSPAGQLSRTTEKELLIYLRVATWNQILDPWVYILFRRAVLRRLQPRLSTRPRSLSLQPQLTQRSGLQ
In words: Other receptors functional EC50, hTP. It is filed as cell-based.
Source text: as §1

One may read the EC50 as the concentration that produces a half-maximal response. Read a high EC50 as a need for much substance. By Ki is commonly meant the equilibrium dissociation constant of an inhibitor or competing ligand from its target. Read a low Ki as higher affinity.

T3 sequence (P43116 whole entry): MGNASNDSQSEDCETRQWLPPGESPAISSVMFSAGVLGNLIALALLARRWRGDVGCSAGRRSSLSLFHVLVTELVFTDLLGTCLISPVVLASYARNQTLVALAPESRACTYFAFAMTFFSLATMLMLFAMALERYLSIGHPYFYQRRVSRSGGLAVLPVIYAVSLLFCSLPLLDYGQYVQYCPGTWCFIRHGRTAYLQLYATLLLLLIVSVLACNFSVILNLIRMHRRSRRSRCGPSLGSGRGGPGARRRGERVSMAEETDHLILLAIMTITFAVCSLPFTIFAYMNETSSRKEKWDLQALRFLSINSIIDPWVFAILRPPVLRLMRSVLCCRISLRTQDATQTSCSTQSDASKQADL

As for `CCCCC[C@H](O)c1ccc(N2C(=O)CC[C@@H]2C/C=C/c2ccc(C(=O)O)s2)cc1`, the values for the EC50 on hEP3A, on hDP and on EP2 [1] were 2070 nM, more than 10 µM and 73 nM, respectively. The compound also came in with a Ki on EP2 [2] of 1420 nM.

Take `CCCCC[C@H](O)c1ccc(N2C(=O)CC[C@@H]2/C=C\Cc2ccc(C(=O)O)s2)cc1`: the values for the EC50 on hDP, on EP2 [3] and on EP2 [1] were more than 10 µM, 23 nM and 19 nM, respectively. For the same compound, the inhibition constant Ki at EP2 [2] stood at 824 nM.

Take `CCCCCC(O)c1ccc(N2C(=O)CC[C@@H]2C/C=C\c2nc(C(=O)O)cs2)cc1` (stereo partly drawn): the EC50 was determined as 43 nM on hEP3A, 1.85 µM at hDP, 17 nM at EP2 [3] and 0.75 nM at EP2 [1]. On EP2 [2], this compound yielded a Ki of 43 nM.

Regarding `CCCCCC(O)c1ccc(N2C(=O)CC[C@@H]2C/C=C/c2nc(C(=O)O)cs2)cc1` (stereo partly drawn), the half-maximal effective concentration (EC50) is 2980 nM on hEP3A, more than 10 µM at hDP, more than 10 µM on hTP and 24 nM on EP2 [1]. The compound also had a Ki at EP2 [2] of 2180 nM.
